Measurements reported in US11548889B2, “Emetine auristatin compounds” (Arizona Board of Regents on behalf of Arizona State …, priority 2019, dated 2023).
Counter-ions that a name gives are not always drawn. Like-named read-outs stand apart in the source and are kept apart here.

What was measured:
MCF-7 (breast) = assay: Human cancer cell growth inhibition, sulforhodamine B assay (NCI); type: cell-based
Procedure: (§1) Cancer Cell Line Procedures. Human cancer cell growth inhibition was measured using the standard sulforhodamine B assay of the U.S. National Cancer Institute, as previously described.^12 Briefly, cells in a 5% fetal bovine serum/RPMI1640 medium were inoculated in 96-well plates and incubated for 24 h. That was followed by serial dilutions of the compounds added. Forty-eight hours later the plates were fixed with trichloroacetic acid, stained with sulforhodamine B, and read with an automated microplate reader.
(§2) Next, growth inhibition of 50% (GI50 or the drug concentration causing a 50% reduction in the net protein increase) was calculated from optical density data with Immunosoft® software.

KM20L2 (colon) = assay: as above; type: cell-based
Procedure: as §1, §2

DU-145 (prostate) = assay: as above; type: cell-based
Procedure: as §1, §2

BXPC-3 (pancreas) = assay: as above; type: cell-based
Procedure: as §1, §2

NCI-H460 (lung) = assay: as above; type: cell-based
Procedure: as §1, §2

Human Cancer Cell Lines = assay: Human cancer cell growth inhibition, summary over the six cell line panel; type: cell-based; conditions: for biological activity (cancer cell growth inhibition): six cell line panel; for decrease in biological activity compared to both emetine and Compound 5: in four cell lines
Procedure: as §1, §2

SF-268 (CNS) = assay: Human cancer cell growth inhibition, sulforhodamine B assay (NCI); type: cell-based
Procedure: as §1

[1] = tested on: NCI 60 Cancer cell screen; conditions: cited from earlier work
[2] = NCI-H460, 48 h, sulforhodamine B

Row | Compound | GI50 (MCF-7 (breast); Homo sapiens, MCF7) [nM] | GI50 (MCF-7 (breast); Homo sapiens, MCF7, 48 h) [µg/mL] | GI50 (KM20L2 (colon); Homo sapiens, KM-20L2) [nM] | GI50 (KM20L2 (colon); Homo sapiens, KM-20L2, 48 h) [µg/mL] | GI50 (DU-145 (prostate); Homo sapiens, DU-145) [nM] | GI50 (DU-145 (prostate); Homo sapiens, DU-145, 48 h) [µg/mL] | GI50 (BXPC-3 (pancreas); Homo sapiens, BXPC-3) [nM] | GI50 (BXPC-3 (pancreas); Homo sapiens, BXPC-3, 48 h) [µg/mL] | GI50 (NCI-H460 (lung); Homo sapiens, NCI-H460) [nM] | GI50 (NCI-H460 (lung); Homo sapiens, NCI-H460, 48 h) [µg/mL] | GI50 (SF-268 (CNS); Homo sapiens, SF-268) [nM] | GI50 (SF-268 (CNS); Homo sapiens, SF-268, 48 h) [µg/mL] | GI50 (MCF-7 (breast); MCF-7, 48 h, sulforhodamine B) [µg/mL] | GI50 (KM20L2 (colon); KM20L2, 48 h, sulforhodamine B) [µg/mL] | GI50 (DU-145 (prostate); DU-145, 48 h, sulforhodamine B) [µg/mL] | GI50 (BXPC-3 (pancreas); BXPC-3, 48 h, sulforhodamine B) [µg/mL] | GI50 (NCI-H460 (lung); [2]) [µg/mL] | GI50 (SF-268 (CNS); SF-268, 48 h, sulforhodamine B) [µg/mL] | biological activity (cancer cell growth inhibition) (Human Cancer Cell Lines) | further results
1 | CC[C@H]1CN2CCc3cc(OC)c(OC)cc3C2C[C@@H]1C[C@@H]1c2cc(OC)c(OC)cc2CCN1C(=O)[C@H](C)[C@@H](OC)C1CCCN1C(=O)C[C@@H](OC)[C@H]([C@@H](C)CC)N(C)C(=O)[C@@H](NC(=O)[C@H](C(C)C)N(C)C)C(C)C (stereo in doubt) [Compound 5, 2N′-(Dov-Val-Dil-Dap)-Emetine] | 35.8 | 0.038 | 35.8 | 0.038 | 12.3 | 0.013 | 386 | 0.41 | 198 | 0.21 | 30.2 | 0.032 | – | – | – | – | – | – | – | decrease in activity compared to emetine (BXPC-3 (pancreas); BXPC-3 cell line): 10 fold; cytotoxicity relative to emetine (Human Cancer Cell Lines; in four of the six cell lines): comparable to that of emetine
2 | CC[C@H]1CN2CCc3cc(OC)c(OC)cc3[C@@H]2C[C@@H]1C[C@H]1NCCc2cc(OC)c(OC)cc21 [Compound 1, emetine dihydrochloride, reference compound] | – | – | – | – | – | – | – | – | – | – | – | – | – | – | – | – | – | – | – | GI50 (MCF-7 (breast); Homo sapiens, MCF7, MCF-7, 48 h, sulforhodamine B, read-out: GI50): 0.03 µg/mL; GI50 (MCF-7 (breast); Homo sapiens, MCF7, MCF-7, value in brackets, read-out: GI50): 54.2 nM; GI50 (KM20L2 (colon); Homo sapiens, KM-20L2, KM20L2, 48 h, sulforhodamine B, read-out: GI50): 0.026 µg/mL; GI50 (KM20L2 (colon); Homo sapiens, KM-20L2, KM20L2, value in brackets, read-out: GI50): 47 nM; GI50 (DU-145 (prostate); Homo sapiens, DU-145, 48 h, sulforhodamine B, read-out: GI50): 0.02 µg/mL; GI50 (DU-145 (prostate); Homo sapiens, DU-145, value in brackets, read-out: GI50): 36.1 nM; GI50 (BXPC-3 (pancreas); Homo sapiens, BXPC-3, 48 h, sulforhodamine B, read-out: GI50): 0.031 µg/mL; GI50 (BXPC-3 (pancreas); Homo sapiens, BXPC-3, value in brackets, read-out: GI50): 56 nM; GI50 (NCI-H460 (lung); Homo sapiens, NCI-H460, 48 h, sulforhodamine B, read-out: GI50): 0.022 µg/mL; GI50 (NCI-H460 (lung); Homo sapiens, NCI-H460, value in brackets, read-out: GI50): 39.7 nM
3 | CCC1CN2CCc3cc(OC)c(OC)cc3C2CC1CC1c2cc(OC)c(OC)cc2CCN1C(=O)C(C)C(OC)C1CCCN1.O=C(O)C(F)(F)F (stereo not shown) [Compound 3, 2′-N-(Dap)-emetine TFA salt] | – | – | – | – | – | – | – | – | – | – | – | – | 1.4 | 3.0 | 3.0 | 2.1 | 5.0 | 3.2 | – | GI50 (MCF-7 (breast); MCF-7, value in brackets, read-out: GI50): 1600 nM; GI50 (KM20L2 (colon); KM20L2, value in brackets, read-out: GI50): 3420 nM; GI50 (DU-145 (prostate); DU-145, value in brackets, read-out: GI50): 3420 nM; GI50 (BXPC-3 (pancreas); BXPC-3, value in brackets, read-out: GI50): 2390 nM; GI50 (NCI-H460 (lung); NCI-H460, value in brackets, read-out: GI50): 5700 nM; decrease in activity compared to emetine (Human Cancer Cell Lines; in all six cell lines): 100 fold; GI50 (SF-268 (CNS); SF-268, value in brackets, read-out: GI50): 3650 nM
4 | CCC1CN2CCc3cc(OC)c(OC)cc3C2CC1CC1c2cc(OC)c(OC)cc2CCN1C(=O)CCNC(=O)OC(C)(C)C (stereo not drawn) [Compound 6, 2′-(N-carboxy-β-alanyl)-tert-butyl emetine ester] | – | – | – | – | – | – | – | – | – | – | – | – | 10 | >10 | >10 | >10 | >10 | >10 | inactive | –
5 | CC[C@H]1CN2CCc3cc(OC)c(OC)cc3C2C[C@@H]1C[C@@H]1c2cc(OC)c(OC)cc2CCN1C(=O)CCN (stereo partly drawn) [Compound 7, 2′-N-(β-alanine)-emetine TFA salt] | – | > 10 | – | > 10 | – | 10.1 | – | 10.3 | – | > 10 | – | > 10 | – | – | – | – | – | – | inactive | –
6 | CCC1CN2CCc3cc(OC)c(OC)cc3C2CC1CC1c2cc(OC)c(OC)cc2CCN1C(=O)CCNC(=O)C(C)C(OC)C1CCCN1C(=O)OC(C)(C)C (stereo not shown) [Compound 8, 2′-N-(boc-dap-[…]-ala)-emetine] | – | – | – | – | – | – | – | – | – | – | – | – | >10 | >10 | 10.0 | >10 | >10 | >10 | inactive | –
7 | CC[C@H]1CN2CCc3cc(OC)c(OC)cc3C2C[C@@H]1C[C@@H]1c2cc(OC)c(OC)cc2CCN1C(=O)CCNC(=O)[C@H](C)[C@@H](OC)C1CCCN1C(=O)C[C@@H](OC)C([C@@H](C)CC)N(C)C(=O)[C@@H](NC(=O)[C@H](C(C)C)N(C)C)C(C)C (stereo partly drawn) [Compound 9, Dov-Val-Dil-Dap-β-Ala-Emetine] | 159 | 0.18 | 194 | 0.22 | 97.2 | 0.11 | 3800 | 4.3 | 2830 | 3.2 | 186 | 0.21 | – | – | – | – | – | – | – | decrease in biological activity compared to both emetine and Compound 5 (Human Cancer Cell Lines): 10 fold
8 | CC[C@H]1CN2CCc3cc(OC)c(OC)cc3C2C[C@@H]1C[C@@H]1c2cc(OC)c(OC)cc2CCN1CCNC(=O)[C@H](C)[C@@H](OC)C1CCCN1C(=O)C[C@@H](OC)C([C@@H](C)CC)N(C)C(=O)[C@@H](NC(=O)[C@H](C(C)C)N(C)C)C(C)C (stereo partly drawn) [Compound 10, 2′-N-(ethylamine-N-Dap-Dil-Val-Dov)-Emetine] | 118 | 0.13 | 362 | 0.4 | 181 | 0.2 | 1900 | 2.1 | 4530 | 5 | 272 | 0.3 | – | – | – | – | – | – | – | decrease in biological activity compared to both emetine and Compound 5 (Human Cancer Cell Lines): 10 fold
9 | CC[C@H]1CN2CCc3cc(OC)c(OC)cc3[C@@H]2C[C@@H]1C[C@H]1NCCc2cc(OC)c(OC)cc21 [Emetine] | – | – | – | – | – | – | – | – | – | – | – | – | – | – | – | – | – | – | – | G150 [1]: 27 nM
